The results in this text go back to patent US20180207228A1, “PEPTIDE COMBINATIONS AND USES THEREOF FOR TREATING GRASS ALLERGY” (ALK-Abelló A/S, priority 2015, published 2018).

What all share (type): cell-based, human
The test system of assay [1] is allergen specific T cells. Description: T cell proliferation assay (72 h) on donor derived T cell lines (TCL02/TCL03). Conditions: for Proliferation % donor coverage (TCL-02 DK1): T cell lines TCL-02 DK1, 30 donors, hit criteria SI>=2, CPM>=1000; for Proliferation strength (TCL-02 DK1): T cell lines TCL-02 DK1, strength of response (average relative magnitude). An excerpt: Isolated PBMCs (peripheral blood mononuclear cells) obtained from the donors described in Example 2 were CD8 depleted and the T cell lines were established by stimulating the cultures with nPhl p1, mix of nPhl p 2 and […] 5 and […] established for each of the donors tested by stimulating with the mixture of above listed allergens. Grass allergic donors were recruited (cohort DK1 including 30 grass allergic individuals, DK2 including 24 grass allergic individuals and US1 including 15 grass allergic individuals). PBMCs were isolated from freshly drawn heparinized blood by gradient centrifugation on lymphoprep (Nycomed, Norway), washed twice and re-suspended in RPMI 1640 medium with HEPES and ultraglutamine (Cambrex, Belgium) supplemented with 5% v/v human AB-serum (Cambrex, Belgium), 100 units/ml penicillin, and 0.1 mg/ml streptomycin (Sigma, St Louis, USA) (referred to as 5% AB-medium). Aliquots of the isolated PBMCs were frozen and were thawed later to stimulate the T cell lines. Additionally either fresh or thawed PBMCs were used as antigen presenting cells (APCs) in the proliferation assay as described later. In some cases the PBMCs were freezed at this stage and thawed later on to continue the experiment as described in the following. The isolated PBMCs (fresh or thawed) were CD8 depleted by MACS magnetic depletion according to the manufacturer's instructions (Miltenyi Biotec, Bergisch Gladbach, Germany). On day 0 the CD8-depleted PBMCs (2×10^6/ml) were stimulated in 1 ml bulk cultures in AB medium in 24 well plates (Nunc, Denmark) with the mixture of natural allergens: nPhl p 1 (0.5 μg/ml), mix of […]). […] On day 14 cells were harvested to obtain T cell line generation 01 (referred to as TCL01). Restimulation of T cell lines were performed in AB-medium with the thawed autologous PBMCs (10^6/well, irradiated 2500 Rad), the above mixture of natural allergens (concentration as mentioned above), and PHA-P (0.5 μg/ml, Difco, Detroit, Mich., USA). rIL-2 was added at day 17, 18 and 19. On day 24 cells were harvested to obtain T cell line generation 02 (referred as TCL02). T cells were isolated, washed, counted and used for T cell proliferation assay as described later. Remaining cells were frozen for later thawing and re-stimulations. The T cell line generation 2 (TCL02) were thawed and were re-stimulated with allogeneic Epstein Bar Virus transformed lymphoblastoid cell lines (EBV) B cells (JY cells, 10^5/well, irradiated 3500 Rad), allogeneic PBMCs (10^6/well, irradiated 2500 Rad), and 0.5 μg/ml PHA-P and subsequent addition of rIL-2 at days 3-5 to generate T cell line generation 03 (referred to as TCL03). […] To summarize ELISpot experiments were carried out at day 14 (with TCL01) and proliferation assay on either day 24 (with TCL02) or at day 34 (with TCL03). […] To ensure that all T cell epitopes regions from the major and intermediate grass allergens of the grass were identified T cell screening was carried out with either overlapping peptides or selected peptides. […] These were overlapping 20-mer peptides spanning the entire full length amino acid sequence of […] and selected high binder peptides from Phl p 4 were tested. Additionally 21, 15 mer peptides were tested which were derived from various group 1 and 5 allergens. Also, 67 peptides from homologous grass allergens were tested. Finally some reference peptides and mixes thereof were also tested. The 15-mer peptides were selected on the basis of predicted and measured promiscuous HLA binding and of sequence homology between known proteins sequences from the relevant pooideae grasses and the Bermuda grass. […] To get comprehensive data from all the donors the peptides were tested in both Fluorospot/Elispot (day 14, TCL01) and proliferation (day 24, TCL02).

In assay [2] the test system is release of IL-5 upon T cell activation. Description: Fluorospot assay, IL-5 release (DK1-TCL01, US1-TCL01). The settings on record: head prints TCL-02 DK1; text: 25 TCL-01 DK1 lines. How it is done: (§1) Grass allergic donors were recruited (cohort DK1 including 30 grass allergic individuals, DK2 including 24 grass allergic individuals and US1 including 15 grass allergic individuals). PBMCs were isolated from freshly drawn heparinized blood by gradient centrifugation on lymphoprep (Nycomed, Norway), washed twice and re-suspended in RPMI 1640 medium with HEPES and ultraglutamine (Cambrex, Belgium) supplemented with 5% v/v human AB-serum (Cambrex, Belgium), 100 units/ml penicillin, and 0.1 mg/ml streptomycin (Sigma, St Louis, USA) (referred to as 5% AB-medium). Aliquots of the isolated PBMCs were frozen and were thawed later to stimulate the T cell lines. Additionally either fresh or thawed PBMCs were used as antigen presenting cells (APCs) in the proliferation assay as described later. In some cases the PBMCs were freezed at this stage and thawed later on to continue the experiment as described in the following. The isolated PBMCs (fresh or thawed) were CD8 depleted by MACS magnetic depletion according to the manufacturer's instructions (Miltenyi Biotec, Bergisch Gladbach, Germany). On day 0 the CD8-depleted PBMCs (2×10^6/ml) were stimulated in 1 ml bulk cultures in AB medium in 24 well plates (Nunc, Denmark) with the mixture of natural allergens: nPhl p 1 (0.5 μg/ml), mix of nPhl p 2/nPhl p 3 (1.0 μg/ml), nPhl p 4 (0.5 μg/ml), nPhl p 5 (0.5 μg/ml) and nCyn d 1 (0.5 μg/ml). Amount of 65 U, 30 U, and 30 U recombinant IL-2 (Chiron, USA) were added per well at days 5, 6 and 7, respectively. On day 14 cells were harvested to obtain T cell line generation 01 (referred to as TCL01).
(§2) On day 14 the T cells of TCL01 were isolated, washed and counted. The isolated T cells of TCL01 generation were used to perform either ELISpot or Fluorospot assay. TCL01 were further re-stimulated as described in the next paragraph for use in T cell proliferation. The aliquot for use in T cell proliferation was re-stimulated on day 14 to carry out proliferation experiment at day 24.
(§3) In the Fluorospot assays, release of IL-5 and IFN-γ upon T cell activation (of donor derived lines DK1-TCL01, and US1-TCL01) with a peptide or a peptide-mix described herein was measured by Fluorospot assay kit (Mabtech AB) and procedures were followed as per manufacturer's instructions. Briefly anti-human IL-5 and anti-human IFN-γ coated 96 well plates were obtained and blocked with 10% AB serum in RPMI. The plates were washed thoroughly and the isolated T cells were plated and incubated with either single peptides (2 μg/ml) or peptide mixes (2 μg/ml), or allergens nPhl p1, nPhl p 2, nPhl p 3, nPhl p 4, nPhl p 5, Cyn d 1 at 2 μg/ml for 20 hrs/37° C./5% CO2. After the incubation time the cells were removed by emptying the plate. Detection antibodies 7-B6-1-FS-FITC (1:200) and 5A10-biotin (2 μg/ml) were diluted in PBS-0.1% BSA and were added to the plate and incubated for 2 hours/room temperature (RT). There-after the plates were washed and anti-FITC-green (1:200) and SA-Red (1:200) diluted in PBS±0.1% BSA were added and incubated for 1 hour/RT/dark. After the incubation period the plates were washed, emptied and fluorescence enhancer solution was added for 15 minutes/RT. Plates were emptied, fluorescence enhancer solution was firmly tapped out against a clean paper, soft plastic under drain was removed and the plates were left in the dark to dry. The counts were inspected in a fluorospot reader. Hit criteria for peptide were 20 SFCs/10^6 PBMCs, p≤0.05 and poisson 0.05 stimulated cells compared to background, and a stimulation index (SI)≥2.
(§4) The peptides were identified as hits if they fulfilled the criteria as mentioned below where stimulation index (SI) value of 2 or above, Poisson value=<0.05 and P value=<0.05, SFC>=20 (IL-5/IFN-g)/10^6 cells and CPM>=1000 (proliferation) SI can be defined as [[…]/medium control] in a Fluorospot assay and [counts per minute (cpm)/medium control] in a proliferation assay.

In assay [3] the test system is release of IFN-γ upon T cell activation. Description: Fluorospot assay, IFN-γ release (DK1-TCL01, US1-TCL01). The settings on record: head prints TCL-02 DK1; 17 TCL-01 DK1 lines. As for the experimental part: as §1, §2, §3, §4

The structures appear in SMILES notation.

As to `CC[C@H](C)[C@H](NC(=O)[C@@H](NC(=O)[C@H](CC(=O)O)NC(=O)[C@H](CCC(=O)O)NC(=O)[C@H](C)NC(=O)[C@H](CCC(=O)O)NC(=O)[C@@H](N)[C@@H](C)O)C(C)C)C(=O)N1CCC[C@H]1C(=O)N[C@@H](CCC(=O)O)C(=O)NCC(=O)N[C@@H](Cc1c[nH]c2ccccc12)C(=O)N[C@@H](CCCCN)C(=O)N[C@@H](C)C(=O)N[C@@H](CC(=O)O)C(=O)N[C@H](C(=O)N[C@@H](CO)C(=O)N[C@@H](Cc1ccc(O)cc1)C(=O)N[C@@H](CCC(=O)O)C(=O)N[C@@H](CO)C(=O)N[C@@H](CCCCN)C(=O)O)[C@@H](C)O` [compound 13], in assay [1], the “Proliferation % donor coverage (TCL-02 DK1)” value (“Proliferation % donor coverage” for short) was found to be 43.33% and the “Proliferation strength (TCL-02 DK1)” value was determined as 8.10. The “IL-5-Fluorospotr % donor coverage (TCL-02 DK1)” value in assay [2] is recorded as 16.00%. The “IFN-gamma % donor coverage (TCL-02 DK1)” value in assay [3] is given as 8.00%.
In the same order, the values of `CC[C@H](C)[C@H](NC(=O)[C@H](CCCCN)NC(=O)[C@@H](NC(=O)[C@H](CC(C)C)NC(=O)[C@@H](NC(=O)[C@@H]1CCCN1C(=O)[C@H](CCC(=O)O)NC(=O)CNC(=O)[C@H](CO)NC(=O)[C@H](CO)NC(=O)[C@H](CCC(=O)O)NC(=O)[C@@H](NC(=O)[C@@H]1CCCN1)C(C)C)C(C)C)C(C)C)C(=O)N[C@H](C(=O)N[C@@H](CC(=O)O)C(=O)N[C@@H](CCCCN)C(=O)N[C@@H](CC(N)=O)C(=O)N[C@@H](Cc1ccc(O)cc1)C(=O)N[C@@H](CCC(=O)O)C(=O)N[C@@H](Cc1c[nH]cn1)C(=O)O)[C@@H](C)O` [compound 97] are 10.00%, 0.70, 4.00% and 8.00%.
The like results for `CC(C)C[C@H](NC(=O)[C@H](CCC(=O)O)NC(=O)CN)C(=O)N[C@@H](CCC(=O)O)C(=O)N[C@@H](CC(C)C)C(=O)N[C@@H](CCC(N)=O)C(=O)N[C@@H](Cc1ccccc1)C(=O)N[C@@H](CCCNC(=N)N)C(=O)N[C@@H](CCCNC(=N)N)C(=O)N[C@H](C(=O)N[C@@H](CCCCN)C(=O)N[C@@H](CO)C(=O)N[C@@H](CCCCN)C(=O)N[C@@H](Cc1ccc(O)cc1)C(=O)N1CCC[C@H]1C(=O)O)C(C)C` [compound 118] were, in that order, 65.52%, 11.50, 25.00% and 4.00%.
The like results for `CC[C@H](C)[C@H](NC(=O)[C@H](CCCCN)NC(=O)[C@H](CCC(=O)O)NC(=O)[C@@H](NC(=O)[C@@H](N)CC(C)C)[C@@H](C)CC)C(=O)N[C@@H](CC(N)=O)C(=O)N[C@@H](C)C(=O)NCC(=O)N[C@@H](Cc1ccccc1)C(=O)N[C@@H](CCCCN)C(=O)N[C@@H](C)C(=O)N[C@@H](C)C(=O)N[C@H](C(=O)N[C@@H](C)C(=O)N[C@@H](C)C(=O)O)C(C)C` [compound 123] were, in that order, 53.33%, 7.90, 12.50% and 0.00%.
Consider `CC[C@H](C)[C@H](NC(=O)[C@H](CC(N)=O)NC(=O)[C@H](CC(C)C)NC(=O)[C@@H](NC(=O)[C@H](CC(C)C)NC(=O)[C@@H](NC(=O)[C@H](CCCCN)NC(=O)[C@H](C)NC(=O)[C@H](CC(=O)O)NC(=O)[C@@H](N)CO)[C@@H](C)O)C(C)C)C(=O)N[C@@H](CCCCN)C(=O)N[C@@H](Cc1ccc(O)cc1)C(=O)N[C@H](C(=O)N[C@@H](CCCNC(=N)N)C(=O)N1CCC[C@H]1C(=O)O)[C@@H](C)O` [compound 125], for which, in assay [1], the “Proliferation % donor coverage” value was found to be 31.03% and the “Proliferation strength (TCL-02 DK1)” value was 6.30. The “IL-5-Fluorospotr % donor coverage (TCL-02 DK1)” value in assay [2] is given as 12.50%. In addition, in assay [3], the “IFN-gamma % donor coverage (TCL-02 DK1)” value was found to be 4.00%.
As for `CSCC[C@H](N)C(=O)N[C@@H](CCCNC(=N)N)C(=O)N[C@@H](CC(N)=O)C(=O)N[C@H](C(=O)N[C@@H](Cc1ccccc1)C(=O)N[C@@H](CC(=O)O)C(=O)N[C@@H](CC(=O)O)C(=O)N[C@H](C(=O)N[C@H](C(=O)N1CCC[C@H]1C(=O)N[C@@H](C)C(=O)N[C@@H](CC(=O)O)C(=O)N[C@@H](Cc1ccccc1)C(=O)N[C@@H](CCCCN)C(=O)N[C@H](C(=O)O)C(C)C)C(C)C)C(C)C)C(C)C` [compound 126], in assay [1], the “Proliferation % donor coverage” value is listed as 37.93% and the “Proliferation strength (TCL-02 DK1)” value amounted to 0.40. In assay [2], the “IL-5-Fluorospotr % donor coverage (TCL-02 DK1)” value turned out to be 8.33%. For the same molecule, the “IFN-gamma % donor coverage (TCL-02 DK1)” value in assay [3] worked out at 0.00%.
